# According to patent US20240124456A1, “AZA-ERGOLINE DERIVATIVE AND PREPARATION METHOD THEREFOR AND APPLICATION THEREOF” (SHANGHAITECH UNIVERSITY, priority 2021, published 2024):
# What was measured:
# dopamine D2 receptors [1] = molecular target: T1, dopamine D2 receptors (Homo sapiens (Human), UniProt P14416); assay: G protein Gαi1-γ9 dissociation BRET, dopamine D2 receptor functional activity; format: cell-based; settings: for EC50: HEK-293T, I-1 to 19 n=3, I-20 to 27 single determination, read-out: Gai1 BRET EC50; for Emax: relative to the endogenous ligand dopamine, read-out: Gai1 BRET Emax % ± SEM
# T1 sequence (P14416 whole entry): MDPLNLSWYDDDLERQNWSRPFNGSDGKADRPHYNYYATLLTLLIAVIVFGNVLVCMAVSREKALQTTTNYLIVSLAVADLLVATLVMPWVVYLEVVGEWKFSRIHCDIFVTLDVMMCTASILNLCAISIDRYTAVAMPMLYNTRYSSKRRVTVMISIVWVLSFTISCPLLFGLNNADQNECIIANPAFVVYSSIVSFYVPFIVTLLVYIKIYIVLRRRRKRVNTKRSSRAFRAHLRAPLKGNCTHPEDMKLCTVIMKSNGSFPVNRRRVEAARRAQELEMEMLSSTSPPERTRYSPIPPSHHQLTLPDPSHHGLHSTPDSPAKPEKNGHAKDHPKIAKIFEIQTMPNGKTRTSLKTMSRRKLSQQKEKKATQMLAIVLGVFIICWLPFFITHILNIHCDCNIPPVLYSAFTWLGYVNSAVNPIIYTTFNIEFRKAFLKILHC
# dopamine D2 receptors [2] = molecular target: T1, dopamine D2 receptors; assay: Radioligand competition binding, affinity for dopamine D2 receptors ([3H]-Methylspiperone); settings: [3H]-Methylspiperone (0.3-0.5 nM), HEK-293T membranes; for Ki: I-1 to 19 n=3, I-20 to 27 single determination; for Affinity pKi ± SEM: n=3
# dopamine D2 receptors [3] = molecular target: T1, dopamine D2 receptors; assay: β-arrestin2 recruitment BRET, dopamine D2 receptor functional activity; format: cell-based; settings: for EC50: HEK-293T, I-1 to 19 n=3, I-20 to 27 single determination, read-out: β-arrestin2 BRET EC50; for Emax: relative to the endogenous ligand dopamine, read-out: β-arrestin2 BRET Emax % ± SEM
SMILES,EC50 (dopamine D2 receptors [1]) [nM],Emax (dopamine D2 receptors [1]) [%],Ki (dopamine D2 receptors [2]) [nM],Affinity pKi ± SEM (dopamine D2 receptors [2]),EC50 (dopamine D2 receptors [3]) [nM],Emax (dopamine D2 receptors [3]) [%]
"O=C1CCc2ccc(OCCCCN3CCN4c5cccc6[nH]cc(c56)CC4C3)cc2N1 (centres unmarked) [Compound I-1, 7-(4(4,6,6a,7,9,10-hexahydro-8H-pyrazino[1,2-a]pyrrolo[4,3,2-de]quinolin-8-yl)butoxy)-3,4-dihydroquinolin-2(1H)-one]",16.2,100,33.6,(7.47 ± 0.16),56.2,100
CN(C)C(=O)N[C@H]1CC[C@H](CCN2CCN3c4cccc5[nH]cc(c45)C[C@H]3C2)CC1 [(−)-I-10],1.38,78,22.4,(7.65 ± 0.08),2.75,89
"O=c1ccc2ccc(OCCCCN3CCN4c5cccc6[nH]cc(c56)CC4C3)cc2[nH]1 (racemic) [Compound I-2, 7-(4(4,6,6a,7,9,10-hexahydro-8H-pyrazino[1,2-a]pyrrolo[4,3,2-de]quinolin-8-yl)butoxy)quinolin-2(1H)-one]",14.8,101,9.03,,49,103
CN(C)C(=O)N[C@H]1CC[C@H](CCN2CCN3c4cccc5[nH]cc(c45)C[C@@H]3C2)CC1 [(+)-I-10],9.55,86,1140,(5.95 ± 0.17),5.25,90
